According to patent US10301292B2, “Bicyclic compound” (Takeda Pharmaceutical Company Limited, priority 2014, dated 2019):

Target: T1, human ACC1 (Homo sapiens, UniProt Q13085)
T1 construct: His tag (from vector pFAST-BacHTc; protein captured on Ni-NTA) (N); made in house; host or cells: SF-9 insect cells, recombinant baculovirus BAC-ACC1
Assay: Measurement of ACC1 inhibitory activity (Malonyl-CoA production, RapidFire-mass spectrometry)
Type: biochemical
Details: 10 μM of the test compound; recombinant human ACC1; read-out: ACC1 inhibitory rate (%) at 10 μM
Procedure, shortened: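 Sf9-expressed His-tagged human ACC1, diluted to 0.2 μg/ml in HEPES pH 7.5/MgCl2/citrate/DTT/0.001% BSA, was preincubated 60 min at RT with compound. Reaction started with substrate solution (50 mM KHCO3, 200 μM ATP, 200 μM acetyl-CoA), ran 30 min at RT, then was formic acid-quenched. Malonyl-CoA was quantified by RapidFire-MS against malonyl-13C3-CoA.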

inhibition at 10 µM: 98%
SMILES: CC(NC(N)=O)c1ccc2nc(-c3ccc(Oc4cccc(OCC5CC5)c4)nc3)oc2c1 (stereo not shown) [Example 98, 1-(1-(2-(6-(3-(cyclopropylmethoxy)phenoxy)pyridin-3-yl)-1,3-benzoxazol-6-yl)ethyl)urea]
